Source: US20100160454A1, “ANTIMICROBIAL AGENTS, COMPOSITIONS AND PRODUCTS CONTAINING THE SAME, AND METHODS OF USING THE COMPOSITIONS AND PRODUCTS” (Eastman Chemical Company, priority 2008, published 2010)

Tests used:
Experiment in all cases: Microbiological challenge testing in BPW broth, graded subculture counts
Format in all cases: cell-based
[1] = test system: Staphylococcus aureus ATCC 25923; conditions: S. aureus
Method in brief: (§1)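 Strains grown in TSB with 1% dextrose at 35 °C for ≥96 h. Inoculum added to BPW broth with 1% dextrose, with or without test material (w/v), to 10^5–10^6 CFU/mL at time zero. Counts by spread-plating serial 1:10 dilutions in pH 7.2 phosphate buffer on PCA, incubated at 35 °C for ≥48 h.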

[2] = test system: Burkholderia cepacia Wild type; conditions: B. cepacia
Method in brief: as §1

Aeromonas sp. Wild type = test system: Aeromonas sp. Wild type
Method in brief: as §1

[3] = test system: Streptococcus mutans ATCC 35668
Method in brief: as §1

[4] = test system: Bacillus subtilis Wild type
Method in brief: as §1

[5] = test system: Pseudomonas aeruginosa Wild type; conditions: P. aeruginosa
Method in brief: as §1

Compound: OCC1CCCC(CO)C1 (stereo not drawn) [1,3-CHDM, 1,3-cyclohexanedimethanol]
- Grade ([1]; 0.5% (wt/vol), 3 day): 5 (More than 10,000 colonies estimated (thus more than 100,000 CFU/mL))
- Grade ([1]; 0.5% (wt/vol), 14 day): 5 (More than 10,000 colonies estimated (thus more than 100,000 CFU/mL))
- Grade ([1]; 0.5% (wt/vol), 30 day): 5 (More than 10,000 colonies estimated (thus more than 100,000 CFU/mL))
- Grade ([1]; 1.25% (wt/vol), 3 day): 4 (1000 to 10,000 colonies countable (thus 10,000 CFU/mL to 100,000 CFU/mL))
- Grade ([1]; 1.25% (wt/vol), 14 day): 4 (1000 to 10,000 colonies countable (thus 10,000 CFU/mL to 100,000 CFU/mL))
- Grade ([1]; 1.25% (wt/vol), 30 day): 4 (1000 to 10,000 colonies countable (thus 10,000 CFU/mL to 100,000 CFU/mL))
- Grade ([1]; 2.5% (wt/vol), 3 day): 4 (1000 to 10,000 colonies countable (thus 10,000 CFU/mL to 100,000 CFU/mL))
- Grade ([1]; 2.5% (wt/vol), 14 day): 4 (1000 to 10,000 colonies countable (thus 10,000 CFU/mL to 100,000 CFU/mL))
- Grade ([1]; 2.5% (wt/vol), 30 day): 4 (1000 to 10,000 colonies countable (thus 10,000 CFU/mL to 100,000 CFU/mL))
- Grade ([1]; 5.0% (wt/vol), 3 day): 4 (1000 to 10,000 colonies countable (thus 10,000 CFU/mL to 100,000 CFU/mL))
- Grade ([1]; 5.0% (wt/vol), 14 day): 3 (100 to 1000 colonies (thus 1000 to 10,000 CFU/mL))
- Grade ([1]; 5.0% (wt/vol), 30 day): 4 (1000 to 10,000 colonies countable (thus 10,000 CFU/mL to 100,000 CFU/mL))
- Grade ([2]; 0.5% (wt/vol), 3 day): 5 (More than 10,000 colonies estimated (thus more than 100,000 CFU/mL))
- Grade ([2]; 0.5% (wt/vol), 14 day): 5 (More than 10,000 colonies estimated (thus more than 100,000 CFU/mL))
- Grade ([2]; 0.5% (wt/vol), 30 day): 5 (More than 10,000 colonies estimated (thus more than 100,000 CFU/mL))
- Grade ([2]; 1.25% (wt/vol), 3 day): 4.7
- Grade ([2]; 1.25% (wt/vol), 14 day): 4.7
- Grade ([2]; 1.25% (wt/vol), 30 day): 4.7
- Grade ([2]; 2.5% (wt/vol), 3 day): 4 (1000 to 10,000 colonies countable (thus 10,000 CFU/mL to 100,000 CFU/mL))
- Grade ([2]; 2.5% (wt/vol), 14 day): 4 (1000 to 10,000 colonies countable (thus 10,000 CFU/mL to 100,000 CFU/mL))
- Grade ([2]; 2.5% (wt/vol), 30 day): 4 (1000 to 10,000 colonies countable (thus 10,000 CFU/mL to 100,000 CFU/mL))
- Grade ([2]; 5.0% (wt/vol), 3 day): 3 (100 to 1000 colonies (thus 1000 to 10,000 CFU/mL))
- Grade ([2]; 5.0% (wt/vol), 14 day): 1 (0 to 51 colonies counted (thus 10 to 510 CFU/mL based on 0.1-mL sample))
- Grade ([2]; 5.0% (wt/vol), 30 day): 3.3
- Aeromonas sp growth grade, 3 day (Aeromonas sp. Wild type; 0.5% weight/volume): 5 (More than 10,000 colonies estimated (thus more than 100,000 CFU/mL))
- Aeromonas sp growth grade, 14 day (Aeromonas sp. Wild type; 0.5% weight/volume): 4 (1000 to 10,000 colonies countable (thus 10,000 CFU/mL to 100,000 CFU/mL))
- Aeromonas sp growth grade, 30 day (Aeromonas sp. Wild type; 0.5% weight/volume): 4 (1000 to 10,000 colonies countable (thus 10,000 CFU/mL to 100,000 CFU/mL))
- Aeromonas sp growth grade, 3 day (Aeromonas sp. Wild type; 1.25% weight/volume): 4 (1000 to 10,000 colonies countable (thus 10,000 CFU/mL to 100,000 CFU/mL))
- Aeromonas sp growth grade, 14 day (Aeromonas sp. Wild type; 1.25% weight/volume): 4 (1000 to 10,000 colonies countable (thus 10,000 CFU/mL to 100,000 CFU/mL))
- Aeromonas sp growth grade, 30 day (Aeromonas sp. Wild type; 1.25% weight/volume): 4 (1000 to 10,000 colonies countable (thus 10,000 CFU/mL to 100,000 CFU/mL))
- Aeromonas sp growth grade, 3 day (Aeromonas sp. Wild type; 2.5% weight/volume): 4 (1000 to 10,000 colonies countable (thus 10,000 CFU/mL to 100,000 CFU/mL))
- Aeromonas sp growth grade, 14 day (Aeromonas sp. Wild type; 2.5% weight/volume): 4 (1000 to 10,000 colonies countable (thus 10,000 CFU/mL to 100,000 CFU/mL))
- Aeromonas sp growth grade, 30 day (Aeromonas sp. Wild type; 2.5% weight/volume): 4 (1000 to 10,000 colonies countable (thus 10,000 CFU/mL to 100,000 CFU/mL))
- Aeromonas sp growth grade, 3 day (Aeromonas sp. Wild type; 5.0% weight/volume): 4 (1000 to 10,000 colonies countable (thus 10,000 CFU/mL to 100,000 CFU/mL))
- Aeromonas sp growth grade, 14 day (Aeromonas sp. Wild type; 5.0% weight/volume): 4 (1000 to 10,000 colonies countable (thus 10,000 CFU/mL to 100,000 CFU/mL))
- Aeromonas sp growth grade, 30 day (Aeromonas sp. Wild type; 5.0% weight/volume): 4 (1000 to 10,000 colonies countable (thus 10,000 CFU/mL to 100,000 CFU/mL))
- S. mutans growth grade, 3 day ([3]; 0.5% weight/volume): 5 (More than 10,000 colonies estimated (thus more than 100,000 CFU/mL))
- S. mutans growth grade, 13 day ([3]; 0.5% weight/volume): 4 (1000 to 10,000 colonies countable (thus 10,000 CFU/mL to 100,000 CFU/mL))
- S. mutans growth grade, 30 day ([3]; 0.5% weight/volume): 4 (1000 to 10,000 colonies countable (thus 10,000 CFU/mL to 100,000 CFU/mL))
- S. mutans growth grade, 3 day ([3]; 1.25% weight/volume): 4 (1000 to 10,000 colonies countable (thus 10,000 CFU/mL to 100,000 CFU/mL))
- S. mutans growth grade, 13 day ([3]; 1.25% weight/volume): 4 (1000 to 10,000 colonies countable (thus 10,000 CFU/mL to 100,000 CFU/mL))
- S. mutans growth grade, 30 day ([3]; 1.25% weight/volume): 4 (1000 to 10,000 colonies countable (thus 10,000 CFU/mL to 100,000 CFU/mL))
- S. mutans growth grade, 3 day ([3]; 2.5% weight/volume): 4 (1000 to 10,000 colonies countable (thus 10,000 CFU/mL to 100,000 CFU/mL))
- S. mutans growth grade, 13 day ([3]; 2.5% weight/volume): 4 (1000 to 10,000 colonies countable (thus 10,000 CFU/mL to 100,000 CFU/mL))
- S. mutans growth grade, 30 day ([3]; 2.5% weight/volume): 4 (1000 to 10,000 colonies countable (thus 10,000 CFU/mL to 100,000 CFU/mL))
- S. mutans growth grade, 3 day ([3]; 5.0% weight/volume): 2 (52 to 100 colonies counted (thus 520 to 1000 CFU/mL))
- S. mutans growth grade, 13 day ([3]; 5.0% weight/volume): 0
- S. mutans growth grade, 30 day ([3]; 5.0% weight/volume): 0
- B. subtillis growth grade, 3 day ([4]; 0.5% weight/volume): 4 (1000 to 10,000 colonies countable (thus 10,000 CFU/mL to 100,000 CFU/mL))
- B. subtillis growth grade, 14 day ([4]; 0.5% weight/volume): 4 (1000 to 10,000 colonies countable (thus 10,000 CFU/mL to 100,000 CFU/mL))
- B. subtillis growth grade, 30 day ([4]; 0.5% weight/volume): 4 (1000 to 10,000 colonies countable (thus 10,000 CFU/mL to 100,000 CFU/mL))
- B. subtillis growth grade, 3 day ([4]; 1.25% weight/volume): 4 (1000 to 10,000 colonies countable (thus 10,000 CFU/mL to 100,000 CFU/mL))
- B. subtillis growth grade, 14 day ([4]; 1.25% weight/volume): 4 (1000 to 10,000 colonies countable (thus 10,000 CFU/mL to 100,000 CFU/mL))
- B. subtillis growth grade, 30 day ([4]; 1.25% weight/volume): 4 (1000 to 10,000 colonies countable (thus 10,000 CFU/mL to 100,000 CFU/mL))
- B. subtillis growth grade, 3 day ([4]; 2.5% weight/volume): 4 (1000 to 10,000 colonies countable (thus 10,000 CFU/mL to 100,000 CFU/mL))
- B. subtillis growth grade, 14 day ([4]; 2.5% weight/volume): 4 (1000 to 10,000 colonies countable (thus 10,000 CFU/mL to 100,000 CFU/mL))
- B. subtillis growth grade, 30 day ([4]; 2.5% weight/volume): 4 (1000 to 10,000 colonies countable (thus 10,000 CFU/mL to 100,000 CFU/mL))
- B. subtillis growth grade, 3 day ([4]; 5.0% weight/volume): 4 (1000 to 10,000 colonies countable (thus 10,000 CFU/mL to 100,000 CFU/mL))
- B. subtillis growth grade, 14 day ([4]; 5.0% weight/volume): 4 (1000 to 10,000 colonies countable (thus 10,000 CFU/mL to 100,000 CFU/mL))
- B. subtillis growth grade, 30 day ([4]; 5.0% weight/volume): 4 (1000 to 10,000 colonies countable (thus 10,000 CFU/mL to 100,000 CFU/mL))
- Grade ([5]; 0.5% (wt/vol), 3 day): 5 (More than 10,000 colonies estimated (thus more than 100,000 CFU/mL))
- Grade ([5]; 0.5% (wt/vol), 13 day): 5 (More than 10,000 colonies estimated (thus more than 100,000 CFU/mL))
- Grade ([5]; 0.5% (wt/vol), 30 day): 5 (More than 10,000 colonies estimated (thus more than 100,000 CFU/mL))
- Grade ([5]; 1.25% (wt/vol), 3 day): 4 (1000 to 10,000 colonies countable (thus 10,000 CFU/mL to 100,000 CFU/mL))
- Grade ([5]; 1.25% (wt/vol), 13 day): 4 (1000 to 10,000 colonies countable (thus 10,000 CFU/mL to 100,000 CFU/mL))
- Grade ([5]; 1.25% (wt/vol), 30 day): 4 (1000 to 10,000 colonies countable (thus 10,000 CFU/mL to 100,000 CFU/mL))
- Grade ([5]; 2.5% (wt/vol), 3 day): 4 (1000 to 10,000 colonies countable (thus 10,000 CFU/mL to 100,000 CFU/mL))
- Grade ([5]; 2.5% (wt/vol), 13 day): 4 (1000 to 10,000 colonies countable (thus 10,000 CFU/mL to 100,000 CFU/mL))
- Grade ([5]; 2.5% (wt/vol), 30 day): 4 (1000 to 10,000 colonies countable (thus 10,000 CFU/mL to 100,000 CFU/mL))
- Grade ([5]; 5.0% (wt/vol), 3 day): 4 (1000 to 10,000 colonies countable (thus 10,000 CFU/mL to 100,000 CFU/mL))
- Grade ([5]; 5.0% (wt/vol), 13 day): 4 (1000 to 10,000 colonies countable (thus 10,000 CFU/mL to 100,000 CFU/mL))
- Grade ([5]; 5.0% (wt/vol), 30 day): 4 (1000 to 10,000 colonies countable (thus 10,000 CFU/mL to 100,000 CFU/mL))
